Results on 16 molecules are retold here after ChEMBL document CHEMBL1909046, “DrugMatrix in vitro pharmacology data”.

Assay [1] addresses T1, Alpha-1D adrenergic receptor (Homo sapiens, UniProt P25100).
T1 sequence (P25100 whole entry): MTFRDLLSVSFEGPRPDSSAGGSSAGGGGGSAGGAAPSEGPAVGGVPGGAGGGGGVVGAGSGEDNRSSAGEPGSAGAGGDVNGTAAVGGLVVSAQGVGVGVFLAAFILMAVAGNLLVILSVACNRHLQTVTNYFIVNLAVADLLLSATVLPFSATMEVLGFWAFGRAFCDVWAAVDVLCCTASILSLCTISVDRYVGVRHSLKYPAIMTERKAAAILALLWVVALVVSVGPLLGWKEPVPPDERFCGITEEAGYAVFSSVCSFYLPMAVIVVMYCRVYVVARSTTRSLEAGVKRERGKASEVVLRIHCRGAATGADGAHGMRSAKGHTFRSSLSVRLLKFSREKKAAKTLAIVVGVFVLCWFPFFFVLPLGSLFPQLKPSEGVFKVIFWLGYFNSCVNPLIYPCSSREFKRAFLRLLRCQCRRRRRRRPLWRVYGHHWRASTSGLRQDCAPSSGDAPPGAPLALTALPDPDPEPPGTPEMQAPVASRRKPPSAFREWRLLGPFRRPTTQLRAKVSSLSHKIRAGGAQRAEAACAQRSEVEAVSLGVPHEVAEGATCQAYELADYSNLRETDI
The format is cell membranes, HEK293, Membrane. As to conditions: for Ki: read-out: Ki.

A further assay concerns the target Substance-P receptor (Homo sapiens, UniProt P25103). Format: cell membranes, CHO, Membrane. Further: in other assays of this panel Not Active means under 50% inhibition at 10 µM.
A short description of assay [2]: DRUGMATRIX: Glutamate, AMPA radioligand binding (ligand: [3H] AMPA). The format is cell membranes, Rattus norvegicus, Wistar, Cerebral cortex, Membrane. Particulars: Not Active = under 50% inhibition at 10 µM.
Assay [3] addresses Sodium-dependent dopamine transporter (Homo sapiens, UniProt Q01959). The assay can be described thus: DRUGMATRIX: Dopamine Transporter radioligand binding (ligand: [125I] RTI-55). Format: cell membranes, CHO-K1, Membrane. Particulars: Not Active = under 50% inhibition at 10 µM.
A further assay concerns the target T2, Calcitonin receptor (Homo sapiens, UniProt P30988). Further: in other assays of this panel Not Active means under 50% inhibition at 10 µM.
T2 sequence (P30988 whole entry): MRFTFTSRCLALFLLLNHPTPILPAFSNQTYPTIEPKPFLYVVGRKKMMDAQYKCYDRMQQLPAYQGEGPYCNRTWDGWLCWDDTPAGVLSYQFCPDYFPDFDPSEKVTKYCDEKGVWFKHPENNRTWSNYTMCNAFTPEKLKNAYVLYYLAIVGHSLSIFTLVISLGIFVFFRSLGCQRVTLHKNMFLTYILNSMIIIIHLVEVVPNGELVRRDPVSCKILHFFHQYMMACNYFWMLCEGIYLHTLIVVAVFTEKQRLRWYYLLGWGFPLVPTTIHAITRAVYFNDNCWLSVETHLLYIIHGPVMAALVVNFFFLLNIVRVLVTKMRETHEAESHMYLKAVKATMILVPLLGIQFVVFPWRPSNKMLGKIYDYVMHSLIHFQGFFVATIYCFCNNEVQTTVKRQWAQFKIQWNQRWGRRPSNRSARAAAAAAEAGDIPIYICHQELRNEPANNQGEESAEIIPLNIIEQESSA
The format is cell membranes, Membrane. Particulars: t47d.

Assay [4] concerns the target T3, Receptor-type tyrosine-protein phosphatase C (Homo sapiens, UniProt P08575).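 Further: inhibition of CD45 enzyme activity measured using DiFMUP as substrate; in other assays of this panel Not Active means under 50% inhibition at 10 µM.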
T3 sequence (P08575 whole entry): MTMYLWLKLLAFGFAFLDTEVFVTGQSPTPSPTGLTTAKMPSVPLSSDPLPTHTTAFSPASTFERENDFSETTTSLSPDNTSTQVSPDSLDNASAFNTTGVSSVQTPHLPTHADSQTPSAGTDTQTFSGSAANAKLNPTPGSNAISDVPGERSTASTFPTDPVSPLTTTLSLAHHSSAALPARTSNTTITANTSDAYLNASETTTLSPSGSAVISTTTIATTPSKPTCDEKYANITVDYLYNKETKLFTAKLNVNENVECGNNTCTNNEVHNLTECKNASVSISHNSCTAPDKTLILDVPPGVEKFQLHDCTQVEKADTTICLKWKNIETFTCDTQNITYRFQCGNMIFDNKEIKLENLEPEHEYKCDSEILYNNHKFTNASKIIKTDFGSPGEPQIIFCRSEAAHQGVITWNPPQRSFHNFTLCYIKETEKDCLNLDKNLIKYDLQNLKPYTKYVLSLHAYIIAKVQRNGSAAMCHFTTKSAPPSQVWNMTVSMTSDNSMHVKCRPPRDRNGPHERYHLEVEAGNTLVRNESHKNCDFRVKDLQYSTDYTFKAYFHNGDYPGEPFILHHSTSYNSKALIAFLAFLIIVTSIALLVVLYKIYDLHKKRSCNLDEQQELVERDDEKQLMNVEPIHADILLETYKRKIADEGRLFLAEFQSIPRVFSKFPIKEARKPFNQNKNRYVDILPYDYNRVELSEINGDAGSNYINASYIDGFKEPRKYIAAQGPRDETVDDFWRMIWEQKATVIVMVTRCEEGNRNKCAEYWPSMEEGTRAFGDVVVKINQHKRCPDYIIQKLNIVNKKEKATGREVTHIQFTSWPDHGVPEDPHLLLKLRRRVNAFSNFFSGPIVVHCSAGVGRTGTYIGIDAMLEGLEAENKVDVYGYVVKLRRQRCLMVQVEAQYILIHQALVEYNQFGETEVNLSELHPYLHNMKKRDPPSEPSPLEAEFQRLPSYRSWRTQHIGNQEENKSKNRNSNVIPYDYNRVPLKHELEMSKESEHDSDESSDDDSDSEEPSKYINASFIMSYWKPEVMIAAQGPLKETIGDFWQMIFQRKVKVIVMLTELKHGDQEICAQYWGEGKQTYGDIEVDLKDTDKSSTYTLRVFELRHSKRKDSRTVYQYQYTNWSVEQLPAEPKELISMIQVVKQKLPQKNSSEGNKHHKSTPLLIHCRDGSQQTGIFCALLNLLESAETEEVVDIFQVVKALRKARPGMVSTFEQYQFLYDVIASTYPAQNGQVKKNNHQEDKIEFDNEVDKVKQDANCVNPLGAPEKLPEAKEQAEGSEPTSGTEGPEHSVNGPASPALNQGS
On the set-up: species or system Escherichia coli.

Chain of Substance-P receptor (P25103 whole entry): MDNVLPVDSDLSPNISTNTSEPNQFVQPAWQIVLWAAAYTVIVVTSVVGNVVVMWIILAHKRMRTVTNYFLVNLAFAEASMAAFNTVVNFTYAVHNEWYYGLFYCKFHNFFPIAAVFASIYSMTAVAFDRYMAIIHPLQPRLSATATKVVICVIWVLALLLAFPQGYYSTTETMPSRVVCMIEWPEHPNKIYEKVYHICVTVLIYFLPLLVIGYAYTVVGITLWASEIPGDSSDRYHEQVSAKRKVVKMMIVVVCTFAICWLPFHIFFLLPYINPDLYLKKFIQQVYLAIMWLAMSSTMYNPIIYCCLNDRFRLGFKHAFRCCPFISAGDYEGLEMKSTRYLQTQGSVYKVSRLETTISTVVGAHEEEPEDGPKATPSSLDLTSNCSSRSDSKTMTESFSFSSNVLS
Chain of Sodium-dependent dopamine transporter (Q01959 whole entry): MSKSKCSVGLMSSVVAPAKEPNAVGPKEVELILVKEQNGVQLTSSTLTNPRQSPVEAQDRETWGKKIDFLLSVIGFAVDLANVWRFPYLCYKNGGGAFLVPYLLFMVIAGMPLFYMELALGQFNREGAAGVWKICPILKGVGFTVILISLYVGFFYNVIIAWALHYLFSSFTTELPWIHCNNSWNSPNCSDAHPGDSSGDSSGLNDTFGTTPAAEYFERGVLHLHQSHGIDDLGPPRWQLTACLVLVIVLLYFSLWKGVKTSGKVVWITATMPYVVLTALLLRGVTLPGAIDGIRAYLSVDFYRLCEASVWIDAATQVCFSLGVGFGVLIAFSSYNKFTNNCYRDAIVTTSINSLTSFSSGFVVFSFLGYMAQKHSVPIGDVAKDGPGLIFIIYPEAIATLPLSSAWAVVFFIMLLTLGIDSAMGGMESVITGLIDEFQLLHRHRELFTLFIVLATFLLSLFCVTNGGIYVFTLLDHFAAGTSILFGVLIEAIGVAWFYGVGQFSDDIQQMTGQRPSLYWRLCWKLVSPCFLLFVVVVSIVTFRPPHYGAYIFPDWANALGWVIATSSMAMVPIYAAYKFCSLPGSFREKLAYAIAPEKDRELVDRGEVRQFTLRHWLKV

On to `CCOC(=O)[C@H](CCc1ccccc1)N[C@@H](C)C(=O)N1[C@H](C(=O)O)C[C@@H]2CCC[C@@H]21`, for which the IC50 entry (in assay [1] (hek293); against Substance-P receptor (cho); in assay [2]; in assay [3] (cho-k1); at Calcitonin receptor; in assay [4]) was “Not Active” each time. In addition, in assay [2], the Ki (in general, the dissociation constant of the complex between target and ligand, obtained from inhibition or displacement) is given as “Not Active”.

For `CC(C)(C)NC(=O)[C@@H]1CN(Cc2cccnc2)CCN1C[C@@H](O)C[C@@H](Cc1ccccc1)C(=O)N[C@H]1c2ccccc2C[C@H]1O.O`, the IC50 result (in assay [1] (hek293); against Substance-P receptor (cho); in assay [2]; in assay [3] (cho-k1); on Calcitonin receptor; in assay [4]) was “Not Active” each time. The Ki entry in assay [2] is “Not Active”.

Turning to `CC1(C)[C@H]2CC[C@]1(C)C(=O)C2` [(-)-CAMPHOR], the IC50 entry (in assay [1] (hek293); against Substance-P receptor (cho); in assay [2]; in assay [3] (cho-k1); on Calcitonin receptor; in assay [4]) was “Not Active” in each case. For the same molecule, the Ki entry in assay [2] is “Not Active”.

For the molecule `CC(C)(C)NCC(O)c1ccc(O)c(CO)c1` (stereo not given) [ALBUTEROL], the IC50 entry (in assay [1] (hek293); at Substance-P receptor (cho); in assay [2]; in assay [3] (cho-k1); at Calcitonin receptor; in assay [4]) was “Not Active” in each case. The Ki entry in assay [2] is reported as “Not Active”.

As for `COc1ccc(CCN2CCC(Nc3nc4ccccc4n3Cc3ccc(F)cc3)CC2)cc1` [ASTEMIZOLE], the IC50 (commonly the concentration at which inhibition is half-maximal) is 769 nM in assay [1] (read-out: IC50), “Not Active” on Calcitonin receptor and “Not Active” in assay [4]. In addition, in assay [1], the Ki came to 378 nM.

For the molecule `CN(C)CCCN1c2ccccc2CCc2ccc(Cl)cc21` [CLOMIPRAMINE], the IC50 in assay [1] (read-out: IC50) was 180 nM; on Substance-P receptor (cho), “Not Active”; at Calcitonin receptor it was “Not Active”; in assay [4] it was “Not Active”. In addition, in assay [1], the inhibitory constant (Ki) was 88 nM.

As to `Clc1ccccc1C(c1ccccc1)(c1ccccc1)n1ccnc1` [CLOTRIMAZOLE], the IC50 is 15000 nM in assay [1] (read-out: IC50); 16000 nM at Substance-P receptor (read-out: IC50); 5580 nM in assay [3] (read-out: IC50); “Not Active” on Calcitonin receptor; “Not Active” in assay [4]. The Ki in assay [1] was determined as 7380 nM; on Substance-P receptor (read-out: Ki) it was 8750 nM; in assay [3] (read-out: Ki), 4430 nM.

Turning to `O=C(CCCN1CCC(O)(c2ccc(Cl)cc2)CC1)c1ccc(F)cc1` [HALOPERIDOL], the IC50 result (against Substance-P receptor (cho); on Calcitonin receptor; in assay [4]) was “Not Active” in each case.

For the molecule `Oc1c(I)cc(I)c2cccnc12` [IODOQUINOL], the IC50 entry (in assay [1] (hek293); against Substance-P receptor (cho); in assay [2]; in assay [3] (cho-k1); on Calcitonin receptor; in assay [4]) was “Not Active” in each case. In addition, the Ki entry in assay [2] is recorded as “Not Active”.

As to `NNC(=O)c1ccncc1` [ISONIAZID], the IC50 result (in assay [1] (hek293); against Substance-P receptor (cho); in assay [2]; in assay [3] (cho-k1); on Calcitonin receptor; in assay [4]) was “Not Active” throughout. Further, the Ki entry in assay [2] is recorded as “Not Active”.

In the case of `CC1=C(/C=C/C(C)=C/C=C/C(C)=C\C(=O)O)C(C)(C)CCC1` [ISOTRETINOIN], the IC50 result (in assay [1] (hek293); against Substance-P receptor (cho); in assay [2]; in assay [3] (cho-k1); on Calcitonin receptor; in assay [4]) was “Not Active” in each case. For the same molecule, the Ki result in assay [2] is reported as “Not Active”.

As to `CN1CCN2c3ccccc3Cc3ccccc3C2C1` (stereo not given) [MIANSERIN], the IC50 in assay [1] (read-out: IC50) is 83 nM; against Substance-P receptor (cho), “Not Active”; in assay [3] (cho-k1) it was “Not Active”; on Calcitonin receptor, “Not Active”; in assay [4] it was “Not Active”. The Ki in assay [1] was determined as 41 nM.

As for `CC(C)(O)c1ccccc1CC[C@@H](SCC1(CC(=O)O)CC1)c1cccc(/C=C/c2ccc3ccc(Cl)cc3n2)c1` [MONTELUKAST], the IC50 entry (in assay [1] (hek293); on Substance-P receptor (cho); at Calcitonin receptor; in assay [4]) was “Not Active” in each case.

On to `CSc1ccc2c(c1)N(CCC1CCCCN1C)c1ccccc1S2` (stereo not given) [THIORIDAZINE], for which the IC50 is 5.89 nM in assay [1] (read-out: IC50), “Not Active” on Substance-P receptor (cho), “Not Active” at Calcitonin receptor and “Not Active” in assay [4]. In addition, in assay [1], the inhibition constant Ki turned out to be 2.9 nM.

Regarding `COc1cccc(C2(O)CCCCC2CN(C)C)c1` (stereo not given) [TRAMADOL], the IC50 entry (in assay [1] (hek293); at Substance-P receptor (cho); in assay [3] (cho-k1); on Calcitonin receptor; in assay [4]) was “Not Active” throughout.

Take `COC(=O)[C@@H]1[C@H]2C[C@H]3c4[nH]c5ccccc5c4CCN3C[C@@H]2CC[C@@H]1O` [YOHIMBINE]: the IC50 entry (on Substance-P receptor (cho); in assay [2]; in assay [3] (cho-k1); at Calcitonin receptor; in assay [4]) was “Not Active” in each case. Further, the Ki entry in assay [2] is reported as “Not Active”.
